From article PMC12512182, “Unveiling the Structural and Biochemical Characteristics of an Acidophilic β‑Mannanase from Soybean (Glycine max)” (Journal of Agricultural and Food Chemistry, 2025)

Target: T1, GmMAN19-1 (Glycine max, UniProt I1NBK5, Q294W)
T1 construct: gene LOC100787923; mature form, signal peptide 1-27 removed; pGEX-4T-1 (EcoRI/XhoI) N-terminal GST fusion from E. coli BL21(DE3), GST cut with thrombin leaving N-terminal Gly-Ser; ~40 kDa; 371 residues in the crystal structure
T1 sequence (I1NBK5 28-410 Q294W): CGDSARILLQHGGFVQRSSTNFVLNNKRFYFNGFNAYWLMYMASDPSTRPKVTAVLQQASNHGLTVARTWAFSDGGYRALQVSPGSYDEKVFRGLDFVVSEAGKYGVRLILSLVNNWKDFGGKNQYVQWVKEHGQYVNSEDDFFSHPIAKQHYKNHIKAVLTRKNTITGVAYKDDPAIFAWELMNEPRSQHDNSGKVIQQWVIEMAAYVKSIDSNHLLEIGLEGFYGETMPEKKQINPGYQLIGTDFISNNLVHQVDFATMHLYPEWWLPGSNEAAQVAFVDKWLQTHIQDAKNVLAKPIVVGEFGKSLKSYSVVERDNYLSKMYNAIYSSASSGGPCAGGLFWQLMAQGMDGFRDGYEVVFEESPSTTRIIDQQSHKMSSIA
Experiment: TLC product profile of M5 conversion
Format: biochemical
Settings: 1 μM enzyme, 25 mM M5, pH 4.6, 40 °C (optimal assay conditions); hydrolysis and transglycosylation

`OC[C@H]1O[C@@H](O[C@H]2[C@H](O)[C@H](O)[C@H](O[C@H]3[C@H](O)[C@H](O)[C@H](O[C@H]4[C@H](O)[C@H](O)[C@H](O[C@H]5[C@H](O)[C@H](O)C(O)O[C@@H]5CO)O[C@@H]4CO)O[C@@H]3CO)O[C@@H]2CO)[C@@H](O)[C@@H](O)[C@@H]1O` (stereo partly shown) [M5, mannopentaose] was tested, and the “TLC product profile of M5 conversion” value was “the Q267W mutant displayed an altered transglycosylation profile, generating shorter-chain oligosaccharides”.
